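Each compound was tested at five concentrations against cells in 96-well plates for 48 hours. The concentration for 50% growth inhibition is given as GI50. TGI denotes the concentration required for complete inhibition of growth.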
What was measured:
Test in all cases: DTP human tumour cell line panel, 48 h
MALME-3M melanoma = tested on: MALME-3M melanoma
HCC-2998 colon = tested on: HCC-2998 colon
K-562 leukemia = tested on: K-562 leukemia
PC-3 prostate = tested on: PC-3 prostate
OVCAR-3 ovarian = tested on: OVCAR-3 ovarian
DU-145 prostate = tested on: DU-145 prostate
SK-MEL-2 melanoma = tested on: SK-MEL-2 melanoma
U251 CNS = tested on: U251 CNS
NCI-H460 lung = tested on: NCI-H460 lung
SF-268 CNS = tested on: SF-268 CNS

| Structure (SMILES) | GI50 (MALME-3M melanoma) [µM] | TGI (MALME-3M melanoma) [µM] | GI50 (HCC-2998 colon) [µM] | TGI (HCC-2998 colon) [µM] | GI50 (K-562 leukemia) [µM] | TGI (K-562 leukemia) [µM] | GI50 (PC-3 prostate) [µM] | TGI (PC-3 prostate) [µM] | GI50 (OVCAR-3 ovarian) [µM] | TGI (OVCAR-3 ovarian) [µM] | GI50 (DU-145 prostate) [µM] | TGI (DU-145 prostate) [µM] | GI50 (SK-MEL-2 melanoma) [µM] | TGI (SK-MEL-2 melanoma) [µM] | GI50 (U251 CNS) [µM] | TGI (U251 CNS) [µM] | GI50 (NCI-H460 lung) [µM] | TGI (NCI-H460 lung) [µM] | GI50 (SF-268 CNS) [µM] | TGI (SF-268 CNS) [µM] |
| --- | --- | --- | --- | --- | --- | --- | --- | --- | --- | --- | --- | --- | --- | --- | --- | --- | --- | --- | --- | --- |
| COc1cnc2c(c1)C(=O)c1c-2n(CCCN2CCN(C)CC2)c(=O)c2cc(Cl)ccc12 | 5.77 | 19.5 | 11.3 | 26.8 | 1.19 | 3.51 | 3.6 | 65.7 | 15.1 | 29.3 | 3.18 | 19.8 | 5.29 | 23.2 | 7.24 | 49.6 | 0.377 | 13.8 | 4.75 | 29.1 |
| CCOC(=O)c1cc2ncccc2c2ccccc12 | – | > 100 | – | > 100 | – | > 100 | – | > 100 | – | > 100 | – | > 100 | – | > 100 | – | > 100 | – | > 100 | – | > 100 |
| Nc1nccc(Nc2ccc(S(N)(=O)=O)cc2)n1 | – | > 100 | – | > 100 | – | > 100 | – | > 100 | – | > 100 | – | > 100 | – | > 100 | – | > 100 | – | > 100 | – | > 100 |
| COc1ccc(F)cc1C(=O)c1cnc(NC2CCN(S(C)(=O)=O)CC2)nc1N | 3.57 | > 16.8 | 3.55 | > 25 | 6.25 | > 25 | 2.79 | 18.1 | 4.15 | 14.6 | 5.52 | 24.5 | 3.48 | 9.76 | 1.07 | > 19.6 | 0.783 | > 25 | 4.58 | 18.1 |
| C=C[C@]1(C)C=C2C(=O)[C@@]3(O)OC(=O)[C@@]4(CCCC(C)(C)[C@H]34)[C@@]2(O)CC1 | 0.926 | 2.8 | 2.14 | 3.81 | 2.13 | 10.1 | 1.45 | 5.08 | 1.08 | 2.52 | 1.67 | 3.69 | 2.27 | 5.02 | 2.21 | 5.68 | 3.39 | 13.9 | 1.89 | 4.69 |
| Cc1cc(C)nc(SC2=C(Nc3cccc(Cl)c3)C(=O)N(Cc3ccccc3)C2=O)n1 | > 170 | > 170 | > 170 | > 170 | 5.25 | > 170 | > 170 | > 170 | > 170 | > 170 | > 170 | > 170 | > 170 | > 170 | > 170 | > 170 | > 170 | > 170 | > 170 | > 170 |
| CN1CCN(Cc2ccc(NC(=O)c3cncc(C#Cc4c(N)ncc5cc(F)ccc45)c3)cc2C(F)(F)F)CC1 | 0.36 | 1.14 | 2.04 | 11.1 | 0.005 | 1.09 | 0.747 | 1.53 | 2.43 | 4.98 | 0.874 | 1.58 | 1.44 | 6.14 | 1.04 | 2.27 | 0.904 | 1.9 | 0.884 | 1.9 |
| O=C(/C=C\Sc1nccc(C(F)(F)F)n1)c1ccc(Br)cc1 | 16.9 | 43.9 | 12.5 | 32.6 | 15 | 44.1 | 15.4 | 29.4 | 14.9 | 30.2 | 17.6 | 47.9 | > 100 | > 100 | 25 | 72.8 | > 100 | > 100 | 33.2 | > 100 |
| O=C(O)CC1(C(=O)O)CCCCC1 | – | > 100 | – | > 100 | – | > 100 | – | > 100 | – | > 100 | – | > 100 | – | > 100 | – | > 100 | – | > 100 | – | > 100 |
| O=C(Nc1ccc(Br)c(Cl)c1)c1cc(F)ccc1O | 0.263 | 1.99 | 1.63 | > 22 | 0.293 | > 50 | 1.25 | > 14.8 | 0.481 | > 50 | 1.39 | > 50 | 0.558 | 2.08 | 0.768 | > 50 | 0.675 | > 14.8 | 0.996 | > 33.6 |
| Cc1ccc2sc3c(NCCCNCCO)nc4ccccc4c3c(=O)c2c1 | 1.69 | 3.18 | 1.64 | 3.32 | 1.36 | 3.72 | 1.38 | 2.87 | 1.75 | 3.26 | 1.71 | 3.15 | 1.73 | 3.36 | 1.6 | 3.18 | 1.7 | 3.24 | 1.57 | 3.2 |
| CC/C(=C(\CC)c1ccc(OCCN(CC)CC)cc1)c1ccc(OCCN(CC)CC)cc1 | 1.81 | 5.87 | 5.57 | 18.9 | 1.79 | 10.5 | 3.25 | 19.5 | 3.45 | 16.1 | 6.05 | 19.2 | 1.9 | 7.58 | 1.87 | 8.99 | 3.86 | 15.3 | 5.43 | 18.3 |

Reference: PubChem BioAssay (NCI)
